Experimental data: ChEMBL document CHEMBL5055681, “Optimized protocols for assessing libraries of poorly soluble sortase A inhibitors for antibacterial activity against medically-relevant bacteria, toxicity and enzyme inhibition” (Bioorg Med Chem, 2021)
≈ marks a conversion by molar mass, not a printed value. Calls of active or inactive are those of the source. The rule behind the calls is not given here.

Key:
Staphylococcus aureus [1] = experiment: Antimicrobial activity against Staphylococcus aureus ATCC 25923 assessed as bacterial growth inhibition measured after 24 hrs by CLSI based agar dilution method; type: functional
Staphylococcus aureus [2] = experiment: Antimicrobial activity against Staphylococcus aureus ATCC 25923 assessed as zone of inhibition at 125 ug/ml measured after 24 hrs by disc diffusion method; type: functional, organism-based; details: dose 125.0 µg/ml
Staphylococcus aureus [3] = experiment: Antimicrobial activity against Staphylococcus aureus MRSA ATCC 43300 assessed as bacterial growth inhibition measured after 24 hrs by resazurin dye based broth microdilution method; type: functional
[4] = Inhibition of Staphylococcus aureus sortase A using Abz-LPETGK(Dnp)-NH2 fluorescent peptide as a substrate assessed as substrate cleavage measured over 60 mins by FRET assay
Pseudomonas aeruginosa = experiment: Antimicrobial activity against Pseudomonas aeruginosa ATCC 27853 assessed as bacterial growth inhibition measured after 24 hrs by resazurin dye based broth microdilution method; details: ATCC 27853, 24 h
Escherichia coli = experiment: Antimicrobial activity against Escherichia coli ATCC 25922 assessed as bacterial growth inhibition measured after 24 hrs by resazurin dye based broth microdilution method; type: functional
[5] = Ratio of MIC for antimicrobial activity against Staphylococcus aureus ATCC 25923 to IC50 for inhibition of Staphylococcus aureus sortase A using Abz-LPETGK(Dnp)-NH2 fluorescent peptide as substrate; type: toxicity
[6] = Solubility of the compound in 5% DMSO in MHB assessed as precipitation at up to 3.9 ug/ml measured over 24 hrs; type: physicochemical; details: dose < 3.9 µg/ml
HEK293 [7] = experiment: Cytotoxicity against HEK293 cells assessed as reduction in cell viability at 31.3 to 1000 ug/ml measured after 24 hrs by resazurin dye based cell viability assay; details: human, hek293, 24 h, dose 31.3-1000 µg/ml
Staphylococcus aureus [8] = experiment: Antimicrobial activity against Staphylococcus aureus ATCC 25923 assessed as bacterial growth inhibition measured after 24 hrs by resazurin dye based broth microdilution method; type: functional
[9] = Solubility of the compound in 5% DMSO in MHB assessed as precipitation at up to 2.0 ug/ml measured over 24 hrs; type: physicochemical; details: dose < 2 µg/ml
Staphylococcus aureus [10] = experiment: Antimicrobial activity against Staphylococcus aureus ATCC 25923 assessed as zone of inhibition at 250 ug/ml measured after 24 hrs by disc diffusion method; type: functional, organism-based; details: dose 250.0 µg/ml
Staphylococcus aureus [11] = experiment: Antimicrobial activity against Staphylococcus aureus ATCC 25923 assessed as zone of inhibition at 500 ug/ml measured after 24 hrs by disc diffusion method; type: functional
HEK293 [12] = experiment: Cytotoxicity against HEK293 cells assessed as reduction in cell viability at 62.5 to 2000 ug/ml measured after 24 hrs by resazurin dye based cell viability assay; details: human, hek293, 24 h, dose 62.5-2000 µg/ml
[13] = Solubility of the compound in 5% DMSO in MHB assessed as precipitation at up to 500 ug/ml measured over 24 hrs; type: physicochemical; details: dose < 500 µg/ml

SMILES | MIC (Staphylococcus aureus [1]) | Activity (Staphylococcus aureus [2]) | MIC (Staphylococcus aureus [3]) | IC50 [4] | MIC (Pseudomonas aeruginosa) | MIC (Escherichia coli) | Ratio [5] | solubility [6] | Activity (HEK293 [7]) | MIC (Staphylococcus aureus [8]) | solubility [9] | Activity (Staphylococcus aureus [10]) | zone of inhibition at 500 µg/mL (Staphylococcus aureus [11]; read-out: DIZ) | Activity (HEK293 [12]) | Activity (Staphylococcus aureus [11]; dose 500.0 µg/ml) | solubility [13]
COc1ccc2cc3[n+](cc2c1OC)CCc1cc2c(cc1-3)OCO2 [BERBERINE] | 125 µg/mL | Active | 125 µg/mL | 6.9 µg/mL | 500 µg/mL | 250 µg/mL | 18.1 | Soluble | Non-Toxic | 125 µg/mL |  |  |  |  |  | 
O=C(/C=C/c1ccccc1)c1ccccc1 [CHALCONE] | 125 µg/mL (≈ 600 µM) |  | 125 µg/mL (≈ 600 µM) | 25.2 µg/mL (≈ 121 µM) | 500 µg/mL (≈ 2400 µM) | 500 µg/mL (≈ 2400 µM) | 5 |  | Toxic | 125 µg/mL (≈ 600 µM) | Soluble | Active | 16 mm |  |  | 
COc1cc(/C=C/C(=O)CC(=O)/C=C/c2ccc(O)c(OC)c2)ccc1O [CURCUMIN] | 250 µg/mL (≈ 679 µM) |  | 250 µg/mL (≈ 679 µM) | 42.2 µg/mL (≈ 115 µM) | 250 µg/mL (≈ 679 µM) | 250 µg/mL (≈ 679 µM) | 7.1 |  |  | 250 µg/mL (≈ 679 µM) |  |  |  | Toxic | Active | Insoluble
O=c1c(O)c(-c2ccc(O)c(O)c2)oc2cc(O)cc(O)c12 [QUERCETIN] | 250 µg/mL (≈ 827 µM) |  | 250 µg/mL (≈ 827 µM) | 35.1 µg/mL (≈ 116 µM) | 250 µg/mL (≈ 827 µM) | 250 µg/mL (≈ 827 µM) | 6 |  |  | 250 µg/mL (≈ 827 µM) |  | Active |  | Non-Toxic |  | Insoluble
